Source: patent publication US20060069132A1, “Azolecarboxamide herbicides” (priority 2004, published 2006)

Experiments:
rice = experiment: Test B pre-/postemergence herbicide test; format: in vivo, Oryza sativa; conditions: preemergence
Summary of the method: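 Formulation: non-phytotoxic solvent mix with surfactant. Timing: preemergence on seed and postemergence on 2–18 cm plants, applied concurrently. Readout after 13–15 d greenhouse: visual 0–100 control rating against controls.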

velvetleaf = experiment: Test C pre-/postemergence herbicide test; format: in vivo, Abutilon theophrasti; conditions: for Velvetleaf plant response rating: 500 g ai/ha
Summary of the method: (§1)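 Visual injury scores run from 0 (no effect) to 100 (complete control), assessed relative to untreated controls 12 to 14 days after treatment in the greenhouse. Chemicals were formulated in a non-phytotoxic solvent mixture with surfactant and applied to soil after planting or to emerged plants at the 1- to 4-leaf stage.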

morningglory [1] = experiment: Test C pre-/postemergence herbicide test; format: in vivo, Ipomoea coccinea; design: key to Plant response rating, Morningglory: 0 = no effect, 100 = complete control; conditions: for Morningglory plant response rating: 500 g ai/ha
Summary of the method: as §1

lambsquarters = experiment: Test C pre-/postemergence herbicide test; format: in vivo, Chenopodium album; conditions: for Lambsquarters plant response rating: 500 g ai/ha
Summary of the method: as §1

morningglory [2] = experiment: Test A pre-/postemergence herbicide test; format: in vivo, Ipomoea spp.
Summary of the method: (§2)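 Pre: seeded sandy loam, directed soil spray, compound in non-phytotoxic solvent + surfactant. Post: 1–2-leaf plants (2–10 cm), sprayed to runoff. Greenhouse ~10 d; visual injury vs untreated, 0–100 scale.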

johnsongrass = experiment: Test C pre-/postemergence herbicide test; format: in vivo, Sorghum halepense; conditions: for Johnsongrass plant response rating: 500 g ai/ha
Summary of the method: as §1

giant foxtail = experiment: Test A pre-/postemergence herbicide test; format: in vivo, Setaria faberi
Summary of the method: as §2

[3] = 500 g ai/ha, visual rating 0-100, 0 no effect, 100 complete control
[4] = 125 g ai/ha, 0 to 100 scale, 0 is no effect, 100 is complete control
[5] = 125 g ai/ha, scale 0 (no effect) to 100 (complete control), visual, 12 to 14 days, preemergence
[6] = Preemergence, scale 0 to 100, 0 no effect, 100 complete control
[7] = Postemergence, 500 g ai/ha, 0 to 100 scale, 0 no effect, 100 complete control
[8] = Postemergence, 2000 g ai/ha, 0 to 100 scale, 0 no effect, 100 complete control
[9] = Preemergence, 500 g ai/ha, visual rating, 0 to 100 scale (0 no effect, 100 complete control)
[10] = Preemergence, 2000 g ai/ha, visual rating, 0 to 100 scale (0 no effect, 100 complete control)
[11] = Postemergence, 250 g ai/ha, scale 0 to 100, 0 no effect, 100 complete control
[12] = postemergence, 125 g ai/ha, scale 0 to 100
[13] = postemergence, 62 g ai/ha, scale 0 to 100
[14] = Preemergence, 2000 g ai/ha, 0 to 100 scale, 0 no effect, 100 complete control
[15] = 62 g ai/ha, preemergence, scale 0 to 100
[16] = 250 g ai/ha, scale 0-100, preemergence
[17] = preemergence, 500 g ai/ha, visual injury, 0 to 100 scale (0 no effect, 100 complete control)
[18] = 31 g ai/ha, preemergence, scale 0 to 100
[19] = 250 g ai/ha, scale 0 to 100 (0 no effect, 100 complete control), visual, 12 to 14 days, preemergence

Row | SMILES | Plant response rating, Rice (rice; [4]) | Plant response rating, Velvetleaf (velvetleaf; [5]) | Plant response rating, Morningglory (morningglory [1]; [5]) | Plant response rating, Lambsquarters (lambsquarters; [5]) | Morningglory plant response rating (morningglory [2]; [7]) | Plant response rating, Morningglory (morningglory [2]; [8]) | Morningglory plant response rating (morningglory [2]; [9]) | Plant response rating, Johnsongrass (johnsongrass; [5]) | Foxtail, Giant plant response rating (giant foxtail; [7]) | Plant response rating, Foxtail, Giant (giant foxtail; [8]) | Foxtail, Giant plant response rating (giant foxtail; [9]) | Plant response rating, Velvetleaf (velvetleaf; [11]) | Plant response rating, Velvetleaf (velvetleaf; [12]) | Plant response rating, Velvetleaf (velvetleaf; [13]) | Plant response rating, Morningglory (morningglory [1]; [11]) | Plant response rating, Morningglory (morningglory [1]; [12]) | Plant response rating, Morningglory (morningglory [1]; [13]) | Plant response rating, Lambsquarters (lambsquarters; [11]) | Plant response rating, Lambsquarters (lambsquarters; [12]) | Plant response rating, Lambsquarters (lambsquarters; [13]) | other results
1 | CCN(CC)C(=O)c1cccc(NC(=O)c2cc(C(C)(C)C)nn2CC)n1 [Compound 145] | 0 | 20 | 0 | 60 | 15 | 30 | 20 | 65 | 40 | 60 | 85 |  |  |  |  |  |  |  |  |  | Plant response rating, Rice (rice; [3]): 20; Velvetleaf plant response rating (velvetleaf; [6]): 100; Plant response rating (0 = no effect, 100 = complete control), Morningglory (morningglory [1]; 62 g ai/ha, preemergence): 0; Morningglory plant response rating (morningglory [1]; [6]): 30; Plant response rating (0 = no effect, 100 = complete control), Lambsquarters (lambsquarters; 62 g ai/ha, preemergence): 20; Lambsquarters plant response rating (lambsquarters; [6]): 100; Morningglory plant response rating (morningglory [2]; [10]): 25; Plant response rating (0 = no effect, 100 = complete control), Johnsongrass (johnsongrass; 62 g ai/ha, preemergence): 50; Johnsongrass plant response rating (johnsongrass; [6]): 90; Foxtail, Giant plant response rating (giant foxtail; [10]): 100
2 | C#CCOC(=O)c1cccc(NC(=O)c2cc(C(C)(C)C)nn2CC)c1 [Compound 84] | 0 |  |  |  | 5 | 10 | 0 |  | 15 | 10 | 0 | 0 | 0 | 0 | 0 | 0 | 0 | 0 | 0 | 0 | Velvetleaf plant response rating (velvetleaf; Postemergence, scale 0 to 100): 0; Morningglory plant response rating (morningglory [1]; Postemergence, scale 0 to 100): 0; Lambsquarters plant response rating (lambsquarters; Postemergence, scale 0 to 100): 50; Johnsongrass plant response rating (johnsongrass; Postemergence, scale 0 to 100): 0; Plant response rating, Johnsongrass (johnsongrass; [11]): 0; Plant response rating, Johnsongrass (johnsongrass; [12]): 0; Plant response rating, Johnsongrass (johnsongrass; [13]): 0; Foxtail, Giant plant response rating (giant foxtail; [14]): 0
3 | C=CCNC(=O)c1cccc(NC(=O)c2sc(C(C)(C)C)nc2C)c1 [Compound 202] |  | 10 | 55 | 90 | 75 | 75 |  | 40 | 30 | 50 |  |  |  |  |  |  |  |  |  |  | Rice plant response rating (0 to 100 scale) (rice; 125 g ai/ha, 0 = no effect, 100 = complete control): 10; Plant response rating, Rice (rice; [3]): 30; Plant response rating, Velvetleaf (velvetleaf; [15]): 5; Plant response rating, Velvetleaf (velvetleaf; [16]): 100; Velvetleaf plant response rating (velvetleaf; [6]): 100; Plant response rating, Morningglory (morningglory [1]; [15]): 0; Plant response rating, Morningglory (morningglory [1]; [16]): 80; Morningglory plant response rating (morningglory [1]; [6]): 85; Plant response rating, Lambsquarters (lambsquarters; [15]): 40; Plant response rating, Lambsquarters (lambsquarters; [16]): 100; Lambsquarters plant response rating (lambsquarters; [6]): 100; Morningglory plant response rating (morningglory [2]; [10]): 70; Morningglory plant response rating (morningglory [2]; [17]): 15; Plant response rating, Johnsongrass (johnsongrass; [15]): 0; Plant response rating, Johnsongrass (johnsongrass; [16]): 70; Johnsongrass plant response rating (johnsongrass; [6]): 75; Foxtail, Giant plant response rating (giant foxtail; [10]): 80; Foxtail, Giant plant response rating (giant foxtail; [17]): 55
4 | CCn1nc(C(C)(C)C)cc1C(=O)Nc1ccc(F)c(C(=O)NCCF)c1 [Compound 60] | 30 | 70 | 5 | 100 |  | 20 | 10 | 50 |  | 60 | 55 | 30 | 20 | 20 | 10 | 10 | 10 | 70 | 30 | 10 | Plant response rating, Velvetleaf (velvetleaf; [18]): 5; Plant response rating, Velvetleaf (velvetleaf; [19]): 85; Plant response rating, Morningglory (morningglory [1]; [18]): 0; Plant response rating (0 = no effect, 100 = complete control), Morningglory (morningglory [1]; 62 g ai/ha, preemergence): 0; Plant response rating, Morningglory (morningglory [1]; [19]): 10; Plant response rating, Lambsquarters (lambsquarters; [18]): 90; Plant response rating (0 = no effect, 100 = complete control), Lambsquarters (lambsquarters; 62 g ai/ha, preemergence): 100; Plant response rating, Lambsquarters (lambsquarters; [19]): 100; Plant response rating, Morningglory (morningglory [2]; [7]): 10; Morningglory plant response rating (morningglory [2]; [14]): 40; Plant response rating, Johnsongrass (johnsongrass; [18]): 5; Plant response rating (0 = no effect, 100 = complete control), Johnsongrass (johnsongrass; 62 g ai/ha, preemergence): 10; Plant response rating, Johnsongrass (johnsongrass; [19]): 60; Plant response rating, Johnsongrass (johnsongrass; [11]): 0; Plant response rating, Johnsongrass (johnsongrass; [12]): 0; Plant response rating, Johnsongrass (johnsongrass; [13]): 0; Plant response rating, Foxtail, Giant (giant foxtail; [7]): 30; Foxtail, Giant plant response rating (giant foxtail; [14]): 90
5 | C=CCOC(=O)c1cccc(NC(=O)c2cc(C(C)(C)C)nn2CC)c1 [Compound 85] | 0 |  |  |  | 20 | 25 | 0 |  | 20 | 30 | 0 | 80 | 75 | 60 | 60 | 40 | 10 | 50 | 30 | 10 | Velvetleaf plant response rating (velvetleaf; Postemergence, scale 0 to 100): 85; Morningglory plant response rating (morningglory [1]; Postemergence, scale 0 to 100): 80; Lambsquarters plant response rating (lambsquarters; Postemergence, scale 0 to 100): 100; Morningglory plant response rating (morningglory [2]; [14]): 5; Johnsongrass plant response rating (johnsongrass; Postemergence, scale 0 to 100): 80; Plant response rating, Johnsongrass (johnsongrass; [11]): 20; Plant response rating, Johnsongrass (johnsongrass; [12]): 10; Plant response rating, Johnsongrass (johnsongrass; [13]): 10; Foxtail, Giant plant response rating (giant foxtail; [14]): 0
